Measured values reported in paper PMC8623418, “Novel Multitarget Hydroxamic Acids with a Natural Origin CAP Group against Alzheimer’s Disease: Synthesis, Docking and Biological Evaluation” (Pharmaceutics, 2021).

Tests used:
HEK 293 cells = assay: MTT cell viability, HEK 293; type: cell-based; details: Homo sapiens, HEK293; HEK-293, MTT test
Description: The effect of the hydroxamic acids on the viability of cells obtained from human embryonic kidneys, HEK 293, as well as the native form of human neuroblastoma, SH-SY5Y, was evaluated in the MTT test. Using a multifunctional flatbed analyzer, Cytation™3 (BioTek Instruments, Inc., Winooski, VT, USA), the optical density was determined at a wavelength of 530 nm. Based on the dose-dependent curves, the concentration values leading to 50% inhibition of cell population growth (IC50) were calculated.
Due to the fact that most compounds of the class of hydroxamic acids have high cytotoxic activity and are mainly used as anticancer drugs, their use as neuroprotective drugs is limited. Since the goal of our work was to search for agents for the pharmacological correction of neurodegenerative diseases, a necessary part of the biological activity study of the synthesized hydroxamic acids was to determine their effect on the survival of cell cultures. In our work, we used neuron-like neuroblastoma cells SH-SY5Y and a healthy cell line isolated from the human embryonic kidney, HEK 293.

5xFAD transgenic mice = assay: Ex vivo Congo red staining of Aβ plaques in brain sections; details: compared to untreated 5XFAD mice
Description: For histological examination, the mouse brain was fixed in 10% neutral buffered formalin (Leica Biosystems Inc., Buffalo Grove, IL, USA) at +4 °C for 24 h. Then, the material was dehydrated, defatted, and clarified in a Leica ASP200 apparatus (Leica Biosystems Inc., Buffalo Grove, IL, USA) using ethanol-xylene wiring according to the following scheme: deionized water—2 h; 70% ethanol—12 h; ethanol 96% sequentially—1 h, 30 min, 2 portions 15 min each; a mixture of ethanol and xylene 1:1—20 min; xylene—2 portions for 30 min each; paraffin—3 times for 1 h each. Then, the material was embedded in paraffin blocks using a Leica EG1160 apparatus (Leica Biosystems Inc., Buffalo Grove, IL, USA). […] The results were evaluated using a ZEISS LSM 880 laser scanning microscope with an Airyscan module (Carl Zeiss Vision, Jena, Germany). […] A 10 × 10 grid was imposed on images containing only brain tissue; then, in 10 grid cells located obliquely from top left to right bottom corner, we selected plaques using the ‘magic wand’ tool, so the average plaque area and luminosity were calculated. Three images were analyzed for each animal in each group; then, the average of three animals was calculated. […]

β-amyloid 1–42 = tested on: T1, β-amyloid 1–42; assay: β-amyloid 1–42 aggregation, Thioflavin T fluorescence; type: biochemical; details: 100 μM, 72 h incubation
T1 construct: fragments Aβ1–40 and Aβ1–42
Description: The effect of the studied compounds on the aggregation of β-amyloid (1–40/1–42) was analyzed using the method of recording Thioflavin T fluorescence (10 µM) for 72 h at 37 °C. The fluorescence signal was measured using a multifunctional flatbed analyzer, the Cytation ™ 3 (BioTek Instruments, Inc., Winooski, VT, USA), at λex = 450 nm, λem = 480 nm.
The effect of hydroxamic acids on the stage of aggregation of the pathological β-amyloid peptide was investigated for 72 h using two model systems—fragments Aβ1–40 and Aβ1–42. The fluorophore Thioflavin T was used as an indicator of the ongoing fibrillation process, the interaction of which with proteins in the state of amyloid fibrils leads to an increase in the fluorescence signal.

[1] = DPPH test of antiradical activity; details: substances at 100 μM, mean ± SEM
Description: The DPPH test was used to examine antiradical activity based on the ability of a stable chromogen radical of 2,2-diphenyl-1-picrylhydrazyl (DPPH) to remove a hydrogen atom, which is accompanied by a change in the absorption maximum in the electronic absorption spectra. The amount of reduced DPPH was measured using a Cytation ™ 3 multifunctional plate analyzer (BioTek Instruments, Inc., Winooski, VT, USA) at a wavelength of 517 nm.
The antiradical activity of the test compounds was evaluated by the DPPH test, based on the ability of antioxidants to donate an electron to the stable chromogen radical DPPH, converting it into a nonradical form and neutralizing its activity. […] The chromogenic free radical DPPH used in this test has a large size, and substances even with a similar chemical structure may have different antiradical properties due to spatially difficult access.

Row | Compound | IC50 (HEK 293 cells) | Reduction in plaque load (Congo red-positive amyloid) (5xFAD transgenic mice) | Effect on β-amyloid 1–42 aggregation (β-amyloid 1–42) | % of Activity, Antiradical Activity [1]
1 | O=C(CCCCCCC(=O)NC1C2CC3CC(C2)CC1C3)NO (centres unmarked) [compound 15, N^1-(Adamant-2-yl)-N^8-Hydroxyoctanediamide] | > 100 µM | 45% | noticeable fibrillation inhibition | 19.70 ± 1.34%
2 | O=C(/C=C/c1ccc(C(=O)NO)cc1)NC1C2CC3CC(C2)CC1C3 (centres unmarked) [compound 25, 4-((E)-3-((-Adamantan-2-yl)amino)-3-Oxoprop-1-en-1-yl)-N-Hydroxybenzamide] | > 100 µM | No changes in β-amyloid plaque level | noticeable fibrillation inhibition | 43.34 ± 1.42%
